This is an account of results in publication PMC9078263 (RSC Advances, 2018).

The target in the assay is New Delhi metallo-β-lactamase 1 (NDM-1) (Acinetobacter baumannii, UniProt F8UNN7). In words: steady-state kinetics of hydrolysis. It is filed as biochemical.
Sequence of New Delhi metallo-β-lactamase 1 (NDM-1) (F8UNN7 1-270): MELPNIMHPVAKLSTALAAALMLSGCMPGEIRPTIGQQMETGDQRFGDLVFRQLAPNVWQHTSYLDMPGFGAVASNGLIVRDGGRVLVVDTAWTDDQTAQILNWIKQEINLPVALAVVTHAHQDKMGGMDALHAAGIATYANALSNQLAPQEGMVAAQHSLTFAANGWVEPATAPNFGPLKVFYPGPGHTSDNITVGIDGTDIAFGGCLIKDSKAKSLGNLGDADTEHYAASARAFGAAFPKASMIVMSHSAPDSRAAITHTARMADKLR

One may read the Km as the substrate concentration at which the rate is half of its maximum. As for `CO[C@@]1(NC(=O)Cc2cccs2)C(=O)N2C(C(=O)O)=C(COC(N)=O)CS[C@@H]21` [cefoxitin], the Km is above 60 µM. With `CC(C)(O/N=C(\C(=O)N[C@@H]1C(=O)N2C(C(=O)[O-])=C(C[n+]3ccccc3)CS[C@H]12)c1csc(N)n1)C(=O)O` [ceftazidime], the Km was above 60 µM. In the case of `C[C@@H](O)[C@H]1C(=O)N2C(C(=O)O)=C(S[C@@H]3CN[C@H](C(=O)N(C)C)C3)[C@H](C)[C@H]12` [meropenem], the Km is above 60 µM.
